Laboratory results as given in ChEMBL document CHEMBL1139224, “Discovery and metabolic stabilization of potent and selective 2-amino-N-(adamant-2-yl) acetamide 11beta-hydroxysteroid dehydrogenase type 1 inhibitors” (J Med Chem, 2007).

How the values were obtained:
[1] = molecular target: T1, 11-beta-hydroxysteroid dehydrogenase 1 (Homo sapiens, UniProt P28845); assay: Inhibition of human 11beta-HSD1 expressed in Escherichia coli by SPA
[2] = molecular target: 11-beta-hydroxysteroid dehydrogenase 1 (Mus musculus, UniProt P50172); assay: Inhibition of mouse 11beta-HSD1 expressed in Escherichia coli by SPA
11-beta-hydroxysteroid dehydrogenase 1 (Mus musculus, UniProt P50172), sequence (P50172 whole entry): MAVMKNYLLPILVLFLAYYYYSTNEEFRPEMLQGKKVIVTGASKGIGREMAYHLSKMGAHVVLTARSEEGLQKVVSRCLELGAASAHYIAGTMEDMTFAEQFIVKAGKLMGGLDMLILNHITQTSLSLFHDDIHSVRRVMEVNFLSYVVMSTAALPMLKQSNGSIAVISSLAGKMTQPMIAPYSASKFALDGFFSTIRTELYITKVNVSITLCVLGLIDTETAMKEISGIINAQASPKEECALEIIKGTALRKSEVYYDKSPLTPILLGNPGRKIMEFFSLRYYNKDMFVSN

[3] = molecular target: T1, 11-beta-hydroxysteroid dehydrogenase 1; assay: Inhibition of human 11beta-HSD1 expressed in HEK293 cells by FPIA; format: cell-based
[4] = molecular target: 11-beta-hydroxysteroid dehydrogenase 1 (Rattus norvegicus, UniProt P16232); assay: Inhibitory activity against rat 11beta-HSD1
11-beta-hydroxysteroid dehydrogenase 1 (Rattus norvegicus, UniProt P16232), sequence (P16232 whole entry): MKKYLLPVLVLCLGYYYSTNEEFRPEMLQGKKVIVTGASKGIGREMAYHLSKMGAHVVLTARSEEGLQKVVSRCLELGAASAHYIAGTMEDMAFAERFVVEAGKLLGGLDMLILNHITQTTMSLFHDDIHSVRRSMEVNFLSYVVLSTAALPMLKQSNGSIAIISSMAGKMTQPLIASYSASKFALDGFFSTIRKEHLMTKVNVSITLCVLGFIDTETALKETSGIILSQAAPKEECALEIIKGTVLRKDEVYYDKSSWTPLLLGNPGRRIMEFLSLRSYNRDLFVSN

[5] = molecular target: T2, 11-beta-hydroxysteroid dehydrogenase type 2 (Rattus norvegicus, UniProt P50233); assay: Inhibitory activity against rat 11beta-HSD2
T2 sequence (P50233 whole entry): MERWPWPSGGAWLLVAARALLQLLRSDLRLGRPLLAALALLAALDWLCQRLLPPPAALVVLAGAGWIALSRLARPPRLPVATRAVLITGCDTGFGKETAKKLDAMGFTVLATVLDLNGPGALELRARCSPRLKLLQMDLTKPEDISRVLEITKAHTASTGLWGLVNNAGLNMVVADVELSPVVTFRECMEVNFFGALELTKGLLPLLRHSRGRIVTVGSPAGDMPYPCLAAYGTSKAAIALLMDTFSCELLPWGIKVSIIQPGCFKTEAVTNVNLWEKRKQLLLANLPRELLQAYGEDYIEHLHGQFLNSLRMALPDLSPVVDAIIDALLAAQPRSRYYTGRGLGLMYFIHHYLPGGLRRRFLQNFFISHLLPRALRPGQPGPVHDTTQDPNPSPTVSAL

[6] = Intrinsic clearance in rat liver microsomes at 1 uM; format: ADME, Microsome
[7] = Intrinsic clearance in human liver microsomes at 1 uM; format: ADME, Microsome
[8] = Intrinsic clearance in mouse liver microsomes at 1 uM; format: ADME, Microsome
[9] = molecular target: T3, 11-beta-hydroxysteroid dehydrogenase type 2 (Homo sapiens, UniProt P80365); assay: Inhibitory activity against human 11beta-HSD2 by SPA
T3 sequence (P80365 whole entry): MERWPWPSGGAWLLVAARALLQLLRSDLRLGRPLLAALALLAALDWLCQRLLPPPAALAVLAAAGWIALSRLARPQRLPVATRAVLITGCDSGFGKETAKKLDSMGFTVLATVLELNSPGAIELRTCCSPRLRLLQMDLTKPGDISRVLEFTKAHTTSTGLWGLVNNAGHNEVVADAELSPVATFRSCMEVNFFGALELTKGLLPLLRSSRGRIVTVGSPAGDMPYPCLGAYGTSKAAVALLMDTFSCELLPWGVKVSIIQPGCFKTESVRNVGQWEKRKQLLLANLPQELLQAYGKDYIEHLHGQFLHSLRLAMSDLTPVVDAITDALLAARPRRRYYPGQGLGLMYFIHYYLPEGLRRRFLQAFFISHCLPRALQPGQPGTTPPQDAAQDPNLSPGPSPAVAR

[10] = molecular target: T4, 11-beta-hydroxysteroid dehydrogenase type 2 (Mus musculus, UniProt P51661); assay: Inhibitory activity against mouse 11beta-HSD2 by SPA
T4 sequence (P51661 whole entry): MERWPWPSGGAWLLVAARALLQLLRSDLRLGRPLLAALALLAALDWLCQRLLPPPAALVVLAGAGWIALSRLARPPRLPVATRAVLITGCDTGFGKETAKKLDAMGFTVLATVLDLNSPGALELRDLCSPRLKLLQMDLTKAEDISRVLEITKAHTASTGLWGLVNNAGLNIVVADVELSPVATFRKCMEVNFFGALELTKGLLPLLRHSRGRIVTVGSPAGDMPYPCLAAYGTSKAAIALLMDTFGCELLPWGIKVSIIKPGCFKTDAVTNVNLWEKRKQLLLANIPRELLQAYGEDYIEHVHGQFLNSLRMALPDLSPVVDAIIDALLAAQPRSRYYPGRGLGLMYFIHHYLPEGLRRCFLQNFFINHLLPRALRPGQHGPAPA

[11] = Half life in mouse at 10 mg/kg, iv; format: ADME, organism-based; set-up: dose 10 mg/kg, route intravenous; conditions: in vivo
[12] = Volume of distribution in mouse at 10 mg/kg, iv; format: ADME, organism-based; set-up: dose 10 mg/kg, route intravenous; conditions: in vivo, read-out: Vdss
[13] = Plasma clearance in mouse at 10 mg/kg, iv; format: ADME, organism-based; set-up: dose 10 mg/kg, route intravenous
[14] = Half life in mouse at 10 mg/kg, po; format: ADME, organism-based; set-up: dose 10 mg/kg, route oral; conditions: in vivo
Mus musculus = assay: AUC in mouse at 10 mg/kg, po; format: ADME, organism-based, Plasma; set-up: dose 10 mg/kg, route oral; conditions: in vivo
[15] = Oral bioavailability in mouse at 10 mg/kg, po; format: ADME, organism-based; conditions: in vivo

T1 sequence (P28845 whole entry): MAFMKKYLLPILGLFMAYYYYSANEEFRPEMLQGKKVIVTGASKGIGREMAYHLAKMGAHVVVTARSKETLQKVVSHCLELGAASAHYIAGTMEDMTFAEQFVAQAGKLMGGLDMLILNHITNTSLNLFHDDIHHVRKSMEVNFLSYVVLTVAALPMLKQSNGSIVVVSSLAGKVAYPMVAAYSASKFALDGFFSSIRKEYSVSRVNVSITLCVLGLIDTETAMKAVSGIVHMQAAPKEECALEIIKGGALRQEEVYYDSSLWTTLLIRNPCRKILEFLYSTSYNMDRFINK

SMILES	Ki [1] [nM]	Ki [2] [nM]	IC50 [3] [nM]	Ki [4] [nM]	IC50 [5] [nM]	CLint scaled at 1 µM [6] [mL/min/kg]	CLint scaled at 1 µM [7] [mL/min/kg]	CLint scaled at 1 µM [8] [mL/min/kg]	IC50 [9] [nM]	IC50 [10] [nM]	half-life [11] [min]	Vd [12] [L/kg]	clearance [13] [mL/min/kg]	half-life [14] [min]	AUC (Mus musculus) [ug/hr.ml]	bioavailability [15] [%]
C[C@@H](C(=O)N[C@H]1C2CC3CC1C[C@](O)(C3)C2)N1CCN(c2ccc(C(F)(F)F)cn2)CC1 (stereo in doubt; (S)-22f)	7	260	36													
O=C(CN1CC[C@H](C(F)(F)F)C1)N[C@H]1C2CC3CC1C[C@](O)(C3)C2	3	2	35	3	> 100000	467	< 16.7	1000	> 100000	> 100000						
C[C@H](C(=O)N[C@H]1C2CC3CC1C[C@](O)(C3)C2)N1CC[C@@H](F)C1	12	9	180				< 16.7	< 100	> 100000	> 100000						
CC(C(=O)N[C@H]1C2CC3CC1C[C@](O)(C3)C2)N1CC(Oc2ccccc2F)C1 (stereo partly drawn)		7		52	> 100000	66.7	< 16.7	383		> 100000	18	1.2	120	60	0.8	58
N#Cc1cccnc1N1CCN(CC(=O)NC2C3CC4CC(C3)CC2C4)CC1 (stereo not drawn)	14	53	260				1830	6330	> 100000	> 100000						
O=C(CN1CCN(c2ccc(C(F)(F)F)cn2)CC1)NC1C2CC3CC(C2)CC1(O)C3 (racemic)	180	110	> 10000				217	5130	> 100000	> 100000						
CO[C@]12CC3CC(C1)[C@@H](NC(=O)C(C)N1CCN(c4ccc(C(F)(F)F)cn4)CC1)C(C3)C2 (mixture of isomers)		18					50	183								
C[C@@H](C(=O)N[C@H]1C2CC3CC1C[C@](O)(C3)C2)N1CC[C@@H](F)C1	21	24	450				< 16.7	< 100	> 100000	> 100000						
O=C(CN1CCN(c2ccc(C(F)(F)F)cn2)CC1)N[C@H]1C2CC3CC1C[C@@](O)(C3)C2	67	300	> 15000				183	1080	> 10000	> 100000						
CC(C(=O)N[C@H]1C2C[C@@]3(O)CC1C[C@@](O)(C2)C3)N1CCN(c2ccc(C(F)(F)F)cn2)CC1 (mixture of isomers)		4100					< 16.7	< 100								
CC(C(=O)N[C@H]1C2C[C@@]3(O)CC1C[C@@](F)(C2)C3)N1CCN(c2ccc(C(F)(F)F)cn2)CC1 (mixture of isomers)		33					< 16.7	233								
CC(C)(C(=O)N[C@H]1C2CC3CC1C[C@](O)(C3)C2)N1CCN(c2ccc(C(F)(F)F)cn2)CC1							100	2170	> 100000	> 100000						
O=C(CN1CCN(c2ccc(C(F)(F)F)cn2)CC1)NC1C2CC3CC(C2)CC1C3 (stereo not drawn)		51					167	2370								
CO[C@]12CC3C[C@](O)(CC(C1)C3NC(=O)C(C)(C)N1CCN(c3ccc(C(F)(F)F)cn3)CC1)C2 (stereo partly drawn)		180					< 16.7	1000								
O=C(CN1CCN(c2ccc(C(F)(F)F)cn2)CC1)N[C@H]1C2CC3CC1C[C@@](F)(C3)C2	26	110	450				233	< 100	> 100000	> 100000						
O=C(CN1CCN(c2ccc(Cl)cc2)CC1)NC1C2CC3CC(C2)CC1C3 (stereo not drawn)		21					583	1050								
CC(C(=O)N[C@H]1C2CC3CC1C[C@](O)(C3)C2)N1CCc2ccc3c(c2CC1)OCO3 (stereo partly drawn)	4	5	21	13	> 100000	567	33.3	333	62000	> 100000	30	2.7	155	252	0.2	19
CC(C)(C(=O)N[C@H]1C2C[C@@]3(O)CC1C[C@@](O)(C2)C3)N1CCN(c2ccc(C(F)(F)F)cn2)CC1		470					< 16.7	383								
CC(C(=O)N[C@H]1C2C[C@]3(O)CC1C[C@](F)(C2)C3)N1CCN(c2ccc(C(F)(F)F)cn2)CC1 (mixture of isomers)		910					16.7	933								
O=C(CN1CCN(c2ccc(C(F)(F)F)cn2)CC1)N[C@H]1C2CC3CC1C[C@](F)(C3)C2	32	120	550				33.3	2270	> 20000	> 100000						
C[C@@H](C(=O)N[C@H]1C2CC3CC1C[C@](O)(C3)C2)N1CCN(c2ccc(C(F)(F)F)cn2)CC1 (stereo in doubt; (R)-22f)	4	5	26				16.7									
